Literature values in patent US7838081B2, “Liquor that avoids the apparition of stains produced by fungi in lignocellulosic materials such as wood” (priority 2005, dated 2010).

Row | Compound | LD50 acute oral rat (rat) [mg/kg] | LD50 acute termal rabbit (rabbit) [mg/kg] | Results against stains of the wood (in words) (stains of the wood)
1 | Oc1c(Br)cc(Br)cc1Br [2,4,6 Tribromophenol] | >5.000 | >8.000 | good results
2 | [Cu+2].[O-]c1cccc2cccnc12.[O-]c1cccc2cccnc12 [Copper 8 oxiquinolinate (PQ-8), Copper 8 oxiquinolinate] | 3.900 to 4.700 | >2.000 | 
3 | Oc1c(Cl)c(Cl)c(Cl)c(Cl)c1Cl [Pentachlorophenol] |  |  | good results
